According to PMC4429810, “Heat shock protein 90 inhibitors repurposed against Entamoeba histolytica” (Frontiers in Microbiology, 2015):
Counter-ions that a name gives are not always drawn.

What was measured:
[1] = molecular target: T1, EhHsp90 ATP-binding domain (Entamoeba histolytica, UniProt C4MBP1); experiment: bis-ANS fluorescence displacement screen; conditions: read-out: Percent inhibition of fluorescence in protein screen at 2.5 μM (%)
T1 construct: gene EHI_102270; cloned from genomic DNA in pET28a, E. coli BL21(DE3); His tag said to be cut by TEV; pocket residues C49, C103, R109
T1 sequence (C4MBP1 1-215): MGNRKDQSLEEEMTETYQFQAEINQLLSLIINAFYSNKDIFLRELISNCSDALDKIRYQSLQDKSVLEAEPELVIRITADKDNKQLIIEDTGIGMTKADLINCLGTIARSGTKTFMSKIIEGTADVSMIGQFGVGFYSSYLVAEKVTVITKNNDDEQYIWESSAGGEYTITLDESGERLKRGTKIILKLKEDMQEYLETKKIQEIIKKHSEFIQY
From the text: bis-ANS fluorescence displacement screen on EhHsp90 ATP-binding domain

[2] = molecular target: T2, PfHsp90 ATP-binding domain (Plasmodium falciparum, UniProt Q8IC05); experiment: bis-ANS fluorescence displacement screen; conditions: bis-ANS 5 μM, protein 1 μM, Tris pH 7.5, 10 mM MgCl2, 50 mM KCl, 37°C; competition with bis-ANS at ATP-binding domain
T2 construct: gene PF3D7_0708400; from genomic DNA in pET28b, E. coli BL21(DE3); His tag said to be cut by TEV; pocket residues A38, N92, R98
T2 sequence (Q8IC05 1-211): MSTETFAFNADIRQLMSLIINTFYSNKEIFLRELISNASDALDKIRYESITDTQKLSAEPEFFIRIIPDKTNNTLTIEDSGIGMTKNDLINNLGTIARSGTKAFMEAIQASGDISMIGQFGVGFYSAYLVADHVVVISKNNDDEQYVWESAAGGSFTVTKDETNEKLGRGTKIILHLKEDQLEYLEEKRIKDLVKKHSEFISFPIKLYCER

SMILES | inhibition at 2.5 µM [1] [%] | bis-ANS fluorescence displacement screen [2]
CCN(CC)Cc1cc(Nc2ccnc3cc(Cl)ccc23)ccc1O [Amodiaquindihydrochloride dihydrate] | 82.1 | –
COc1ccc2cc3[n+](cc2c1OC)CCc1cc2c(cc1-3)OCO2 [Berberine chloride] | 78.3 | –
C=CC1=C(C)/C(=C/c2[nH]c(Cc3[nH]c(/C=C4\NC(=O)C(C)=C4C=C)c(C)c3CCC(=O)O)c(CCC(=O)O)c2C)NC1=O [Bilirubin] | 73.7 | –
CC(C)/N=c1\cc2n(-c3ccc(Cl)cc3)c3ccccc3nc-2cc1Nc1ccc(Cl)cc1 [Clofazimine] | 73.7 | –
COc1cccc2c1C(=O)c1c(O)c3c(c(O)c1C2=O)C[C@@](O)(C(C)=O)C[C@@H]3O[C@H]1C[C@H](N)[C@H](O)[C@H](C)O1 [Daunorubicin hydrochloride] | 83.2 | –
O=C1Nc2ccc(I)cc2/C1=C/c1cc(Br)c(O)c(Br)c1 [GW5074] | 70.5 | –
CN(C)c1ccc(C(=C2C=CC(=[N+](C)C)C=C2)c2ccc(N(C)C)cc2)cc1 [Gentian Violet] | 99.3 | –
CCN(CC)CCNc1ccc(CO)c2sc3ccccc3c(=O)c12 [Hycanthone] | 90.9 | –
O=C1c2c(O)ccc(O)c2C(=O)c2c(NCCNCCO)ccc(NCCNCCO)c21 [Mitoxantronedihydrochloride] | 95.3 | –
N=C1C=CC(=C(c2ccc(N)cc2)c2ccc(N)cc2)C=C1 [Pararosaniline pamoate] | 99 | –
O=C1c2ccccc2C(=O)c2c(O)c(O)cc(O)c21 [Purpurin] | 75 | –
CO[C@H]1/C=C/O[C@@]2(C)Oc3c(C)c(O)c4c(c3C2=O)C2=NC3(CCN(CC(C)C)CC3)NC2=C(NC(=O)/C(C)=C\C=C\[C@H](C)[C@H](O)[C@@H](C)[C@@H](O)[C@@H](C)[C@H](OC(C)=O)[C@@H]1C)C4=O [Rifabutin] | 73.7 | rifabutin showed the highest inhibition against PfHsp90
CC[C@@]1(O)C[C@H](O[C@H]2C[C@H](N(C)C)[C@H](O)[C@H](C)O2)c2c(cc3c(c2O)C(=O)c2c(O)ccc(O)c2C3=O)[C@H]1C(=O)OC [Rutilantin] | 77.1 | –
C[n+]1cc2c3c(ccc2c2ccc4cc5c(cc4c21)OCO5)OCO3 [Sanguinarine sulfate] | 71.3 | –
N#C/C(=C\c1ccc(O)c(O)c1)C(=O)c1ccc(O)c(O)c1 [Tyrphostin AG 538] | 75 | –
CN(C)c1ccc(C(=C2C=CC(=[N+](C)C)C=C2)c2ccccc2)cc1 [WB 64 (Malachite Green)] | 84.9 | –
